{"source": "paper PMC11873758", "about": "“Lonidamine, a Novel Modulator for the BvgAS System of Bordetella Species” (Microbiology and Immunology, 2024)", "molecular_target": "T1, VFT2 domain of BvgS (Bordetella pertussis, UniProt P16575)", "T1 construct": "His tag from pColdII (no GB1)", "T1 sequence (P16575 290-541)": "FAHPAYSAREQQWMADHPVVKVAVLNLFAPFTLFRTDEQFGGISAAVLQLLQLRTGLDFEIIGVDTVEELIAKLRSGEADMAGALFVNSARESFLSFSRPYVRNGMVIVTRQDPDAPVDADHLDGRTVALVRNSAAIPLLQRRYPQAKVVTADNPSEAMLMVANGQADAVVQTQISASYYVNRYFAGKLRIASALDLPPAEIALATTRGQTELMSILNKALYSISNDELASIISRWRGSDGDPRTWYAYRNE", "experiment": "isothermal titration calorimetry", "type": "binding", "settings": "50 mM sodium phosphate, pH 7.4; 300 µM lonidamine into 20 µM VFT2"}
{"smiles": "O=C(O)c1nn(Cc2ccc(Cl)cc2Cl)c2ccccc12", "note": "[#5, 1‐(2,4‐dichlorobenzyl)‐1H‐indazole‐3‐carboxylic acid]", "values": [{"measurement": "isothermal titration calorimetry", "value": "ITC revealed that lonidamine bound to VFT2 but not VFT1"}]}
